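48-hour exposure; five concentrations; linearly interpolated endpoints. At the GI50, growth is halved.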 Activity calls are given as the source filed them. Rule as the data show it: active = GI50 up to about 1.1 µM and inactive = higher.
Assays:
Assay in all cases: NCI tumour cell line growth inhibition, 48 h
SNB-19 = system: SNB-19
SNB-75 = system: SNB-75
HT-29 = system: HT-29
IGROV-1 = system: IGROV-1
BT-549 = system: BT-549
MCF7 = system: MCF7
OVCAR-4 = system: OVCAR-4
MDA-MB-435 = system: MDA-MB-435
SK-MEL-2 = system: SK-MEL-2
HCC 2998 = system: HCC 2998
OVCAR-5 = system: OVCAR-5
ACHN = system: ACHN
T47D = system: T47D
TK-10 = system: TK-10
OVCAR-3 = system: OVCAR-3
SN12C = system: SN12C
SK-MEL-28 = system: SK-MEL-28
SR = system: SR
MDA-N = system: MDA-N
HCT-15 = system: HCT-15

| SMILES | GI50 (SNB-19) | GI50 (SNB-75) | GI50 (HT-29) | GI50 (IGROV-1) | GI50 (BT-549) | GI50 (MCF7) | GI50 (OVCAR-4) | GI50 (MDA-MB-435) | GI50 (SK-MEL-2) | GI50 (HCC 2998) | GI50 (OVCAR-5) | GI50 (ACHN) | GI50 (T47D) | GI50 (TK-10) | GI50 (OVCAR-3) | GI50 (SN12C) | GI50 (SK-MEL-28) | GI50 (SR) | GI50 (MDA-N) | GI50 (HCT-15) [µM] |
| --- | --- | --- | --- | --- | --- | --- | --- | --- | --- | --- | --- | --- | --- | --- | --- | --- | --- | --- | --- | --- |
| CCOC(=O)c1c(C)n(CCN2CCN(C)CC2)c2ccc(OC)cc12 | 90.2 µM (inactive) | 24.8 µM (inactive) | 24.7 µM (inactive) | 31.2 µM (inactive) | 45.4 µM (inactive) | 33.6 µM (inactive) | 48.6 µM (inactive) | 19.9 µM (inactive) | 17.6 µM (inactive) | 16.6 µM (inactive) | 61.4 µM (inactive) | 65 µM (inactive) | 34.4 µM (inactive) | 33.3 µM (inactive) | > 100 µM (inactive) | 50.9 µM (inactive) | 16.5 µM (inactive) | 20 µM (inactive) | 19.6 µM (inactive) | 28.8 |
| C[C@]12CC[C@@H]3c4cc(OCC(F)(F)F)c(O)cc4CC[C@H]3[C@@H]1CC[C@@H]2O | 2.75 µM (inactive) | 1.63 µM (inactive) | 4.06 µM (inactive) | 6.89 µM (inactive) | 18.4 µM (inactive) | 2.36 µM (inactive) | 17.9 µM (inactive) | 0.284 µM (active) | 4.55 µM (inactive) | 5.93 µM (inactive) | 18.7 µM (inactive) | 7.74 µM (inactive) | 5.41 µM (inactive) | 12 µM (inactive) | 0.459 µM (active) | 1.86 µM (inactive) | 11.8 µM (inactive) | 0.335 µM (active) | 0.287 µM (active) | 0.762 |
| c1ccc(CSP234N5CCN2CCN3CCN4CC5)c(CSP234N5CCN2CCN3CCN4CC5)c1 | > 100 µM (inactive) | 28.3 µM (inactive) | 37.2 µM (inactive) | > 100 µM (inactive) | > 100 µM (inactive) | > 100 µM (inactive) | > 100 µM (inactive) | > 100 µM (inactive) | > 100 µM (inactive) | > 100 µM (inactive) | > 100 µM (inactive) | > 100 µM (inactive) | > 100 µM (inactive) | > 100 µM (inactive) | > 100 µM (inactive) | 14.4 µM (inactive) | > 100 µM (inactive) | 30.8 µM (inactive) | 13.4 µM (inactive) | > 100 |
| CCCCCCCC(=O)OC[n+]1ccc(-c2c(COC(=O)NC(C)C)c(COC(=O)NC(C)C)c3n2CCC3)cc1 | 88.9 µM (inactive) | 42.3 µM (inactive) | 42.6 µM (inactive) | 31 µM (inactive) | > 52.7 µM (inactive) | 30.2 µM (inactive) | 38.6 µM (inactive) | 69 µM (inactive) | 22.1 µM (inactive) | > 100 µM (inactive) | > 96.6 µM (inactive) | 20.4 µM (inactive) | > 64.9 µM (inactive) | > 67.5 µM (inactive) | > 62.7 µM (inactive) | 33.4 µM (inactive) | > 100 µM (inactive) | 5.65 µM (inactive) | > 94.8 µM (inactive) | 52.4 |
| Cc1cccc2c(N)c3cccc(C(=O)NCCNCCN)c3nc12 | 1.16 µM (inactive) | 0.631 µM (active) | 2.9 µM (inactive) | 5.01 µM (inactive) | 14.6 µM (inactive) | 0.369 µM (active) | 2.67 µM (inactive) | 18.7 µM (inactive) | 13 µM (inactive) | 6.79 µM (inactive) | 22.8 µM (inactive) | 3.8 µM (inactive) | 7.36 µM (inactive) | 22.3 µM (inactive) | 21.9 µM (inactive) | 0.179 µM (active) | 15.8 µM (inactive) | 8.09 µM (inactive) | 16 µM (inactive) | 12.4 |
| O=C1Cc2c(-c3ccc(Cl)cc3)cc(-c3ccccc3)nc2-c2ccccc2N1 | 1.87 µM (inactive) | 3.82 µM (inactive) | 4.5 µM (inactive) | 6.95 µM (inactive) | 21.4 µM (inactive) | 9.16 µM (inactive) | 6.62 µM (inactive) | 7.76 µM (inactive) | 26.6 µM (inactive) | 4.06 µM (inactive) | 16.2 µM (inactive) | 5.09 µM (inactive) | 2.66 µM (inactive) | 6.07 µM (inactive) | 11.7 µM (inactive) | 3.71 µM (inactive) | 4.67 µM (inactive) | 7.13 µM (inactive) | 9.35 µM (inactive) | 4.85 |
| O=C1Sc2cc3ccccc3cc2C(=O)Sc2ccc(Br)cc21 | 15.2 µM (inactive) | 4.84 µM (inactive) | 3.41 µM (inactive) | 3.78 µM (inactive) | 3.29 µM (inactive) | 4.46 µM (inactive) | 14.6 µM (inactive) | 3.48 µM (inactive) | 4.56 µM (inactive) | 4.57 µM (inactive) | 11.8 µM (inactive) | 1.66 µM (inactive) | 3.33 µM (inactive) | 5.33 µM (inactive) | 1.79 µM (inactive) | 3.93 µM (inactive) | 3.13 µM (inactive) | 2.45 µM (inactive) | 4.51 µM (inactive) | 2.43 |
